The record followed here is US20250223561A1, “PHARMACEUTICAL COMPOSITION CONTAINING miR-140 AND METHOD FOR PRODUCING SAME” (HIROKO SCIENCE INC., priority 2022, published 2025).

Where “and” joins values, the source holds several entries; their conditions need not be identical. Identical values can stand only once.

One experiment has as its system miR-140. Nature of the experiment: Expression of miR-140 in exosomal fractions by real-time PCR. It counts as cell-based, human. As to conditions: for Cp value: Hs miR-140_1 primer assay (miR-140-5p), single replicates n1, n2, low Cp value means a large amount of miR-140; for Cp value Average: Hs miR-140_1 primer assay, average of n1 and n2. The procedure:
(§1) The fifth passage of immortalized chondrocytes was passaged and seeded in four flasks with a volume of 75 cm^2 at a concentration of 1.5×10^6 cells per flask. Culturing was started after adding 10 nM of estradiol to three of them and without adding it to one of them. […] The medium was collected from each flask the following day and then centrifuged at 1,500 rpm for 5 min. The supernatants were further filtered through a filter with a pore size of 0.22 um and stored as exosomal fractions at −80° C. until an analysis of miR.
cDNA synthesis was conducted with the extracted RNAs using miScript II RT Kit (catalog No. 218160, Qiagen) under the following conditions.
Real-time PCR reactions were conducted on a real-time PCR system (LightCycler 480, Roche) under the following conditions using miScript SYBR Green PCR Kit (catalog No. 218073, Qiagen) with the cDNAs synthesized as described above. The primer for the miR-140 measurement was Hs_miR-140_1 miScript Primer Assay (catalog No. MS00003500, has-miR-140-5p: MIMAT0000431).
(In general: In qPCR the cycle at which signal appears reflects the starting amount.)

Experiment [1] relates to immortalized chondrocytes. Nature of the experiment: Total RNA extracted from exosomal fractions of immortalized chondrocytes treated with exosome release enhancers (Nano Drop). The note with it: for Nucleic Acid conc.: RNA from exosomal fraction of culture supernatant, cells cultured with 10 nM estradiol, enhancer added on day four (10 uM monensin, 20 nM aplimod, 10 uM D609), Nano Drop, dilution ratio 1; for Amount of RNAs: same samples, liquid volume 15 ul. It counts as cell-based, human. On the procedure:
as §1
MicroRNAs were extracted from the exosomal fractions in Example 2 using an exoRNAeasy Serum/Plasma Maxi Kit (Qiagen). The A260/A280 and A260/A230 ratios of the extracted RNAs were measured using a spectrophotometer Nano Drop One (Thermo Fisher Scientific), showing that the samples were free of protein and salt impurities. Electrophoresis of the samples was further conducted using Agilent 2100 Bioanalyzer (Aligent Technologies), confirming that only the target nucleic acids were contained.

For the molecule `Cc1cccc(/C=N/Nc2cc(N3CCOCC3)nc(OCCc3ccccn3)n2)c1` [Apl, aplimod], the Cp value in the experiment with miR-140 (listed as 3-Apl) was 36.78 and 36.76. The “Cp value Average” value in the experiment on miR-140 is given as 36.77. Further, in experiment [1], the “Nucleic Acid conc.” value came out at 179.7 ng/µL and the “Amount of RNAs” value was found to be 2695.9 ng.

Turning to `S=C(S)OC1CC2CC1C1CCCC21` (stereo not drawn) [D, D609], in the experiment with miR-140 (listed as 4-D), the Cp value was 36.84 and 36.89. The “Cp value Average” value in the experiment with miR-140 came out at 36.87. Further, in experiment [1], the “Nucleic Acid conc.” value amounted to 206.3 ng/µL and the “Amount of RNAs” value came out at 3094.4 ng.

`CC[C@@]1([C@@H]2O[C@@H]([C@H]3O[C@@](O)(CO)[C@H](C)C[C@@H]3C)C[C@@H]2C)CC[C@H]([C@]2(C)CC[C@]3(C[C@H](O)[C@@H](C)[C@@H]([C@@H](C)[C@@H](OC)[C@H](C)C(=O)O)O3)O2)O1` [Mo, monensin]: the “miR-140 content compared with the other groups” value with miR-140 (from real-time PCR Cp values) is listed as “nearly twice as much miR-140 as the others”. In addition, in experiment [1], the “Nucleic Acid conc.” value worked out at 290.5 ng/µL and the “Amount of RNAs” value came to 4357.6 ng. Moreover, in experiment [1] (compared with control, aplimod and D609 samples), the “amount of nucleic acid collected (comparison among treatments)” value is recorded as “highest”.
